Results on 2 compounds are retold here after patent publication US4882339A, “4-Amino-substituted 1,2-dihydroxynaphthalene derivatives useful in inhibiting 5-lipoxygenase activity in mammals” (Ciba-Geigy Corporation, priority 1987, dated 1989).

Read-outs that look alike come from different tables or passages of the source.

Data set [1] has as its system rat pleurisy model of inflammation. As to the kind of experiment: Carrageenin-induced pleurisy model of inflammation in the rat. In kind it is in vivo. As to conditions: 30 mg/kg p.o. b.i.d. for two days; 48 hours after carrageenin.
The subject of data set [2] is 5-lipoxygenase. The experiment in a line: Ex vivo inhibition of 5-lipoxygenase (A-23187-stimulated LTB4 formation in whole blood), dog. As to the method: (§1) Furthermore the inhibition of 5-lipoxygenase in vivo is determined after oral or i.v. administration to rats or dogs by measuring ex vivo in whole blood the inhibition of A-23187-stimulated LTB4 formation as compared to non-treated control animals.

Data set [3] has as its system 5-lipoxygenase. The experiment in a line: Ex vivo inhibition of 5-lipoxygenase (A-23187-stimulated LTB4 formation in whole blood), rat. As to conditions: about 10-100 mg/kg p.o. As to the method: as §1
The target in data set [4] is T1, 5-lipoxygenase (Cavia porcellus, UniProt A0A286X958).
T1 construct: A-23187-stimulated guinea pig polymorphonuclear leukocytes; endogenous in cells; host or cells: guinea pig polymorphonuclear leukocytes
T1 sequence (A0A286X958 1-674): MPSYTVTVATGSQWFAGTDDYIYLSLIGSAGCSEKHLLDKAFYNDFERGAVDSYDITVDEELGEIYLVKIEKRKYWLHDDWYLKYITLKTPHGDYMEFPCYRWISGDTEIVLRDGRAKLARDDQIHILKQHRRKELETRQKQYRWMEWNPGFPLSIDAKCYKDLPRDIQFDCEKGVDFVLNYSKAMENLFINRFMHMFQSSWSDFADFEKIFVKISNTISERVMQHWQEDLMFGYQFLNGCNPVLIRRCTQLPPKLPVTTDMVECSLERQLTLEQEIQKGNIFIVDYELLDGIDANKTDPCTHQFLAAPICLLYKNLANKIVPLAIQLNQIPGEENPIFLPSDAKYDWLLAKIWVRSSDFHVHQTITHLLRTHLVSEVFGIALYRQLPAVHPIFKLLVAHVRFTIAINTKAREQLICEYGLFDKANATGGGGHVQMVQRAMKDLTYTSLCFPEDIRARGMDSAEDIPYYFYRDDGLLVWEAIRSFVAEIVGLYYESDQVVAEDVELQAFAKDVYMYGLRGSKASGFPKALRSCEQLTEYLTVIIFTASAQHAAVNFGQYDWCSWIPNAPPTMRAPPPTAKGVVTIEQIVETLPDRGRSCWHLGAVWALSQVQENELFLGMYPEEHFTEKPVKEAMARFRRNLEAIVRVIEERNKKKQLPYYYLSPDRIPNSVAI
The experiment in a line: Inhibition of the synthesis of 5-HETE and LTB4 in A-23187-stimulated guinea pig polymorphonuclear leukocytes. As to conditions: for IC50: in vitro. It is filed as cell-based. As to the method: 5-Lipoxygenase inhibition is determined e.g. by measuring the percent inhibition of the synthesis of 5-HETE [(5S)-5-hydroxy-6,8,11,14-eicosa-tetraenoic acid] and leukotriene B4 (LTB4, 5,12-dihydroxy-6,8,10,14-eicosatetraenoic acid) in A-23187-stimulated guinea pig polymorphonuclear leukocytes, essentially according to radiometric thin-layer chromatogrpahic assays described by Walker and Dawson (J. Pharm. Pharmacol. 31: 778, 1979) and Jakschik and Lee (Nature 287: 51, 1980) used to measure the formation of 5-HETE and LTB4 -like products from ^14 C-arachidonic acid. IC50 values are determined graphically as the concentration of test compound at which the synthesis of 5-HETE and LTB4 -like products is reduced to 50% of their respective control values.

A short description of data set [5]: In vivo metabolite identification after administration of 4-(N-methylcyclohexylamino)-1,2-diacetoxynaphthalene.

As usually defined, the IC50 is the concentration needed to halve the response being measured. For the compound `CC(=O)Oc1cc(N(C)C2CCCCC2)c2ccccc2c1OC(C)=O` [4-(N-methylcyclohexylamino)-1,2-diacetoxynaphthalene], in data set [1], the “cell count of monocytes” value is “lowers the cell count of polymorphonuclear leukocytes and of monocytes”. For the same compound, the “cell count of polymorphonuclear leukocytes” value in data set [1] is on record as “lowers the cell count of polymorphonuclear leukocytes”. In addition, in data set [1], the exudate volume entry is given as “causes inhibition of exudate volume”. Also, the “inhibition of 5-lipoxygenase activity ex vivo” value with 5-lipoxygenase [2] (1 mg/kg i.v.), in the data set on 5-lipoxygenase [2] (100 mg/kg p.o.) and in the data set with 5-lipoxygenase [3] was “inhibits 5-lipoxygenase activity” in each case. The IC50 at 5-lipoxygenase [4] (read-out: IC50 for LTB4 formation) is approximately 1000 nM. Also, the “inhibition of the formation of 5-HETE and leukotriene B4” value at 5-lipoxygenase [4] (result in words) is “inhibits the formation of 5-HETE [(5S)-5-hydroxy-6,8,11,14-eicosa-tetraenoic acid] and leukotriene B4”.
With `CN(C1=CC(=O)C(=O)c2ccccc21)C1CCCCC1` [4-(N-methylcyclohexylamino)-1,2-naphthoquinone], in data set [5], the in vivo metabolite entry is on record as “identified as an in vivo metabolite of 4-(N-methylcyclohexylamino)-1,2-diacetoxynaphthalene”. The half-maximal inhibitory concentration (IC50) at 5-lipoxygenase [4] (read-out: IC50 for inhibition of the formation of LTB4) was approximately 500 nM.
